{"source": "patent US20240027453A1", "about": "“METHOD FOR DETECTION AND QUANTITATIVE MONITORING OF INFECTIONS WITH HERPESVIRUSES” (The Trustees of Princeton University, priority 2020, published 2024)", "system": "HCMV", "assay_type": "cell-based", "details": "DE", "experimental": "In example herpesvirus PRM assay methods shown herein, cell pellets were lysed in 2% SDS, 100 mM NaCl, 0.5 mM EDTA, 50 mM Tris, pH 8.2, and 50 μg of protein was reduced and alkylated with 25 mM TCEP and 50 mM CAM respectively for 20 min at 70° C. Proteins were then precipitated via methanol chloroform precipitation (Wessel & Flugg, Anal Biochem. 138(1):141-143, 1984), resuspended in 50 mM HEPES, pH 8.2 and digested overnight with trypsin (50:1 protein:enzyme w/w ratio). Digested peptides were desalted by SDB-RPS StageTip as previously described (Lum et al., Cell Syst., 7(6):[…], 2018; Greco et al., Methods Mol Biol 1410:39-63, 2016; Federspiel & Cristea, Methods Mol Biol., 1977:115-143, 2019).\nPeptides (1.0 μg on column) were analyzed by LC-MS/MS using a Dionex Ultimate 3000 UHPLC coupled online to an EASYSpray ion source and a Q Exactive HF. Peptides were separated on an EASYSpray C18 column (75 μm×25 cm) heated to 50° C. using a linear gradient of 5% B to 32% B over 60 min at a flow rate of 250 nL/min and were ionized at 1.7 kv. Mobile phase A consisted of 0.1% FA in H2O and mobile phase B consisted of 0.1% FA, 2.9% H2O in ACN.\nThe PRM method was controlled by a peptide inclusion list with retention time windows of 6 min for selected precursor ions.\nThe PRM assay was developed and analyzed using the open-source software Skyline (Maclean et al., Bioinformatics 26(7):966-968, 2010). Summed area under the curve of 3-4 transitions per peptide was used for quantitation. Targeted peptides were normalized to host protein loading control peptides. Peptide values for each sample were scaled to the average of each peptide across all runs. The average of multiple peptides was used as the inferred value for the protein measurement when more than one peptide was quantified (Federspiel et al., PLoS Biol. 17(9):e3000437. Doi: 10.1371/journal.pbio.3000437). PRM quantitation data were graphed using the Python Seaborn and Matplotlib libraries.\nMRC5 primary human fibroblasts (HFs) (ATCC CCL-171) were used as the model system for HSV-1 and HCMV infections and were cultured in complete growth medium (DMEM supplemented with 10% fetal bovine serum and 1% penicillin-streptomycin antibiotics) at 37° C. and 5% CO2. iSLK.219 cells harboring latent KSHV (a gift from Dr. Britt Glaunsinger, University of California, Berkeley) were grown in complete growth medium supplemented with 500 μg/ml hygromycin (ThermoFisher Scientific, 10687010) at 37° C. and 5% CO2. All cells were used for experiments within a maximum of 10 passages.\nWild type HSV-1 strain 17+ (a gift from Beate Sodeik, Hannover Medical School, Hannover, Germany) was propagated as previously described (Diner et al., 2015). Briefly, PO stocks were generated by electroporating pBAC-HSV-1 into U-2 OS cells. […] In a similar manner, wild type HCMV strain AD169 was produced from BAC electroporation into HFs and working stocks were propagated by infecting HFs at a low level. In both cases, cell-associated virus was released by sonication, combined with supernatant virus, then concentrated by ultracentrifugation (20,000 rpm, 2 hours, 4° C. with SW28 swinging bucket rotor [Beckman Coulter]) over a 10% ficoll (HSV-1) or 20% sorbitol (HCMV) cushion. Virus stock titers were determined by plaque assay for HSV-1 or tissue culture infectious dose (TCID50) for HCMV and infections were performed at a multiplicity of infection (MOI) of 3.\n12 hours prior to virus infection or reactivation, cells were treated with either the small molecule drug or DMSO/PBS control at an equivalent volume. […] For infection cycles lasting longer than 24 hours, small molecule drugs were re-added to the cell culture medium every 24 hours. Upon collection, cells were rinsed with PBS, scraped into a microcentrifuge tube, pelleted by centrifugation, and rinsed again with PBS.", "note": "Like-named read-outs stand apart in the source and are kept apart here."}
{"molecule": "Nc1ccn(C[C@@H](CO)OCP(=O)(O)O)c(=O)n1", "note": "[CDV, cidofovir]", "values": [{"measurement": "UL71 (P16823) protein, numerical value of heatmap FIG. 6C", "setting": "timepoint 48", "result": 0.3899}, {"measurement": "UL78 (P16751) protein, numerical value of heatmap FIG. 6C", "setting": "timepoint 48", "result": 0.6533}, {"measurement": "UL84 (P16727) protein, numerical value of heatmap FIG. 6C", "setting": "timepoint 48", "result": 0.1297}, {"measurement": "UL95 (P16801) protein, numerical value of heatmap FIG. 6C", "setting": "timepoint 48", "result": 0.1215}, {"measurement": "UL96 (P16787) protein, numerical value of heatmap FIG. 6C", "setting": "timepoint 48", "result": 0.3595}, {"measurement": "UL97 (P16788) protein, numerical value of heatmap FIG. 6C", "setting": "timepoint 48", "result": 0.2502}, {"measurement": "UL98 (P16789) protein, numerical value of heatmap FIG. 6C", "setting": "timepoint 48", "result": 0.3561}, {"measurement": "UL102 (P16827) protein, numerical value of heatmap FIG. 6C", "setting": "timepoint 48", "result": 0.7853}, {"measurement": "UL104 (P16735) protein, numerical value of heatmap FIG. 6C", "setting": "timepoint 48", "result": 0.06237}, {"measurement": "UL112/UL113 (P17151) protein, numerical value of heatmap FIG. 6C", "setting": "timepoint 48", "result": 0.5163}, {"measurement": "UL114 (P16769) protein, numerical value of heatmap FIG. 6C", "setting": "timepoint 48", "result": 0.6429}, {"measurement": "UL119/UL118 (P16739) protein, numerical value of heatmap FIG. 6C", "setting": "timepoint 48", "result": 0.3879}, {"measurement": "UL128 (P16837) protein, numerical value of heatmap FIG. 6C", "setting": "timepoint 48", "result": 0.163}, {"measurement": "US8 (P09730) protein, numerical value of heatmap FIG. 6C", "setting": "timepoint 48", "result": 0.9091}, {"measurement": "US9 (P09729) protein, numerical value of heatmap FIG. 6C", "setting": "timepoint 48", "result": 0.6112}, {"measurement": "US12 (P09721) protein, numerical value of heatmap FIG. 6C", "setting": "timepoint 48", "result": 0.7192}, {"measurement": "US13 (P09720) protein, numerical value of heatmap FIG. 6C", "setting": "timepoint 48", "result": 0.7254}, {"measurement": "US14 (P09719) protein, numerical value of heatmap FIG. 6C", "setting": "timepoint 48", "result": 0.2849}, {"measurement": "US18 (P69334) protein, numerical value of heatmap FIG. 6C", "setting": "timepoint 48", "result": 0.7625}, {"measurement": "US22 (P09722) protein, numerical value of heatmap FIG. 6C", "setting": "timepoint 48", "result": 0.4007}, {"measurement": "US23 (P09701) protein, numerical value of heatmap FIG. 6C", "setting": "timepoint 48", "result": 0.4974}, {"measurement": "US24 (P09700) protein, numerical value of heatmap FIG. 6C", "setting": "timepoint 48", "result": 0.4753}, {"measurement": "gB (P06473) protein, numerical value of heatmap FIG. 6C", "setting": "timepoint 48", "result": 0.1893}, {"measurement": "sp|P09710|IR01_HCMVA (P09710) protein, numerical value of heatmap FIG. 6C", "setting": "timepoint 48", "result": 0.2164}, {"measurement": "CVC2 (P16726) protein, numerical value of heatmap FIG. 6C", "setting": "timepoint 72", "result": 0.2298}, {"measurement": "DBP (P17147) protein, numerical value of heatmap FIG. 6C", "setting": "timepoint 72", "result": 0.7802}, {"measurement": "HELI (P16736) protein, numerical value of heatmap FIG. 6C", "setting": "timepoint 72", "result": 0.7131}, {"measurement": "NEC1 (P16794) protein, numerical value of heatmap FIG. 6C", "setting": "timepoint 72", "result": 0.2456}, {"measurement": "NEC2 (P16791) protein, numerical value of heatmap FIG. 6C", "setting": "timepoint 72", "result": 0.6919}, {"measurement": "RIR1 (P16782) protein, numerical value of heatmap FIG. 6C", "setting": "timepoint 72", "result": 0.443}, {"measurement": "TRM1 (P16724) protein, numerical value of heatmap FIG. 6C", "setting": "timepoint 72", "result": 0.5444}, {"measurement": "UL4 (P17146) protein, numerical value of heatmap FIG. 6C", "setting": "timepoint 72", "result": 0.08145}, {"measurement": "UL26 (P16762) protein, numerical value of heatmap FIG. 6C", "setting": "timepoint 72", "result": 0.4973}, {"measurement": "UL32 (P08318) protein, numerical value of heatmap FIG. 6C", "setting": "timepoint 72", "result": 0.2303}, {"measurement": "UL34 (P16812) protein, numerical value of heatmap FIG. 6C", "setting": "timepoint 72", "result": 0.5754}, {"measurement": "UL35 (P16766) protein, numerical value of heatmap FIG. 6C", "setting": "timepoint 72", "result": 0.3346}, {"measurement": "UL38 (P16779) protein, numerical value of heatmap FIG. 6C", "setting": "timepoint 72", "result": 0.9343}, {"measurement": "UL44 (P16790) protein, numerical value of heatmap FIG. 6C", "setting": "timepoint 72", "result": 0.5197}, {"measurement": "UL48 (P16785) protein, numerical value of heatmap FIG. 6C", "setting": "timepoint 72", "result": 0.4665}, {"measurement": "UL54 (P08546) protein, numerical value of heatmap FIG. 6C", "setting": "timepoint 72", "result": 1.149}, {"measurement": "UL71 (P16823) protein, numerical value of heatmap FIG. 6C", "setting": "timepoint 72", "result": 0.768}, {"measurement": "UL78 (P16751) protein, numerical value of heatmap FIG. 6C", "setting": "timepoint 72", "result": 1.048}, {"measurement": "UL84 (P16727) protein, numerical value of heatmap FIG. 6C", "setting": "timepoint 72", "result": 0.3948}, {"measurement": "UL95 (P16801) protein, numerical value of heatmap FIG. 6C", "setting": "timepoint 72", "result": 0.3335}, {"measurement": "UL96 (P16787) protein, numerical value of heatmap FIG. 6C", "setting": "timepoint 72", "result": 0.5111}, {"measurement": "UL97 (P16788) protein, numerical value of heatmap FIG. 6C", "setting": "timepoint 72", "result": 0.5258}, {"measurement": "UL98 (P16789) protein, numerical value of heatmap FIG. 6C", "setting": "timepoint 72", "result": 0.6741}, {"measurement": "UL102 (P16827) protein, numerical value of heatmap FIG. 6C", "setting": "timepoint 72", "result": 1.111}, {"measurement": "UL104 (P16735) protein, numerical value of heatmap FIG. 6C", "setting": "timepoint 72", "result": 0.4852}, {"measurement": "UL112/UL113 (P17151) protein, numerical value of heatmap FIG. 6C", "setting": "timepoint 72", "result": 0.7131}, {"measurement": "UL114 (P16769) protein, numerical value of heatmap FIG. 6C", "setting": "timepoint 72", "result": 1.008}]}
